Results taken from article PMC12588083, “Validated antimalarial drug target discovery using genome-scale metabolic modeling” (Antimicrobial Agents and Chemotherapy, 2025).
Entries after “also recorded” stand apart in the source; their conditions may differ.

Columns and labels:
[1] = target: T1, recombinant human UMP-CMP kinase (hUCK) (Homo sapiens, UniProt P30085); assay: Inhibition constant (Ki) determination, coupled PK/LDH NADH assay, hUCK; assay type: biochemical; conditions: for Ki—hUCK: 1 mM CMP, competitive equation
T1 construct: constructed by amplifying its ORF from an available commercial plasmid; His tag (vector-encoded by pET28a; the text names only the HisPur Ni-NTA and His GraviTrap TALON columns) (N); host or cells: E. coli BL21 (DE3) with extra argU, ileY and leuW tRNA genes
T1 sequence (P30085 1-228 isoform P30085-3): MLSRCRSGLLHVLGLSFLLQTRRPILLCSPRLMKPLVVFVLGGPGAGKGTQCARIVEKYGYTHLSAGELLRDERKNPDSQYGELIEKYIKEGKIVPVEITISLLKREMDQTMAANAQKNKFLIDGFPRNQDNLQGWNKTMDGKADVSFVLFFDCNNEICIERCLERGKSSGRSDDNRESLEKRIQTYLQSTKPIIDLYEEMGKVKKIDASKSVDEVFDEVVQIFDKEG
Procedure: The protein was purified with a HisPur Ni-NTA Spin column, and elution was performed with 250 mM imidazole in elution buffer (50 mM Tris-HCl, 750 mM NaCl, and 10% glycerol; pH 7.5). The protein was further purified using a His GraviTrap TALON column (Cytiva, catalog number 29-0005-94). The buffers employed were binding buffer (50 mM potassium phosphate [KP], 100 mM NaCl, and 10% glycerol; pH 8.0), washing buffer (50 mM KP, 500 mM NaCl, 10 mM imidazole, and 10% glycerol; pH 8.0), and elution buffer (50 mM Tris-HCl, 750 mM NaCl, 250 mM imidazole, and 10% glycerol; pH 7.5). The purified protein was desalted using a PD-10 column (Sephadex G25 M; Cytiva, catalog number 17085101) stored in a storage buffer (25 mM Tris-HCl, 50 mM KCl, and 20% glycerol; pH 7.0). Purity of the recombinant protein was verified via SDS-PAGE (Mini-Protein TGX Precast Gels; Bio-Rad), and its concentration was determined using a Bradford protein assay (Bio-Rad, catalog number 5000006).
(§1) The final concentration of dimethyl sulfoxide (Merck, Catalog number 472301) in the assay reaction was maintained at 1%.

[2] = tested on: P. falciparum 3D7; assay: Antiplasmodial activity (IC50), SYBR Green fluorescence, 48 hours; assay type: cell-based, Plasmodium falciparum
Procedure: P. falciparum 3D7 parasites underwent two synchronization cycles with D-sorbitol initiating the inhibitor testing. Parasitemia and hematocrit were adjusted to 0.5% and 3%, respectively. Synchronized ring parasites were cultured in 96-well plates in complete RPMI medium with varying inhibitor concentrations. Inhibitor stock solutions, mostly at 100 mM, were prepared in DMSO. […] Triplicate wells were prepared for each compound. Negative controls included wells with uninfected red cells (3% hematocrit) in complete RPMI medium.
Culture plates were incubated in a chamber with controlled gas conditions at 37°C. After 48 hours, parasites were quantified using a fluorescence-based assay with SYBR Green dye as previously described ([51]). Lysis buffer containing SYBR Green was added to each well, and plates were incubated at room temperature for 45 minutes and protected from the light. Fluorescence was measured using a microplate reader (POLARstar OPTIMA, BMG Labtech) with excitation at 485 nm and detection at 520 nm. Background fluorescence of uninfected red cells was subtracted, and dose-response curves were plotted against inhibitor concentration. IC50 values were determined using nonlinear regression curve fitting in GraphPad Prism software.

[3] = tested on: recombinant PfUCK (P. falciparum UMP-CMP kinase, PfUCK-Δ23); assay: Inhibition constant (Ki) determination, coupled PK/LDH NADH assay, recombinant PfUCK; assay type: biochemical, Plasmodium falciparum; conditions: hUCK versus PfUCK
Procedure: (§2) The hydrophobic core at the protein’s N-terminus may cause poor expression and low solubility in E. coli. Therefore, a truncated gene was created where the ORF began at amino acid residues 24–371, encoding a 348 amino acid protein. […] Briefly, protein expression was induced with isopropyl-D-thiogalactoside, incubated at 16°C with shaking at 200 RPM for 20 hours, and the cell pellet resuspended in binding buffer (50 mM Tris [pH 7.6], 300 mM NaCl, 20 mM imidazole, 5% glycerol, and 0.075% β-mercaptoethanol), with cell disruption using an Avestin C3 Cell Disrupter. Cell debris was removed, and the UCK was purified by Ni-NTA affinity purification. The protein was eluted from the column using a linear gradient of imidazole ([…]) in elution buffer (50 mM Tris [pH 7.6], 300 mM NaCl, 5% glycerol, and 0.075% β-mercaptoethanol). […] The concentrated protein was then stored at −70°C in a storage buffer (25 mM Tris-HCl, 50 mM KCl, and 20% glycerol; pH 7.0).
as §1

[4] = target: recombinant PfUCK (P. falciparum UMP-CMP kinase, PfUCK-Δ23) (Plasmodium falciparum, UniProt Q8I231); assay: as above; assay type: biochemical
Procedure: as §2, §1

[5] = target: T2, hUCK (Homo sapiens, UniProt P30085); conditions: read-out: Km hUCK; phosphate acceptor; literature values ref 66; cited from earlier work
[6] = target: T2, hUCK; conditions: hUCK versus PfUCK
Procedure: (§3) Enzyme activity was assessed using an indirect spectrophotometric assay that measured NADH absorbance at 340 nm coupled to pyruvate kinase/lactate dehydrogenase. The reaction mixture contained 50 mM Tris-HCl (pH 7.6), 50 mM KCl, 10 mM MgCl2, 5 mM ATP, 0.2 mM NADH, 1 mM phosphoenolpyruvate, 10 mM dithiothreitol, pyruvate kinase (10 U/mL), lactate dehydrogenase (15 U/mL), and purified UCK (OD340/min of 0.04–0.06). […] The decrease in absorbance was monitored using a UV/visible spectrophotometer (Ultrospec 2100 Pro).
(§4) Then, a reaction rate was calculated from the decrease in absorbance at 340 nm (εNADH = 6.22 × 10^−3 M^−1 cm^−1) compared to the control reaction in which UCK was absent. The maximum reaction rate (Vmax) and Michaelis constant (Km) values were calculated using the Michaelis-Menten equation (v = Vmax[S] /Km+ [S]), where v is the reaction rate and [S] is the substrate concentration.

[7] = target: T3, PfUCK (Plasmodium falciparum, UniProt Q8I231); assay: UCK characterization: Km for nucleoside monophosphate substrates, PfUCK; assay type: biochemical; conditions: UMP versus CMP
T3 sequence (Q8I231 24-371): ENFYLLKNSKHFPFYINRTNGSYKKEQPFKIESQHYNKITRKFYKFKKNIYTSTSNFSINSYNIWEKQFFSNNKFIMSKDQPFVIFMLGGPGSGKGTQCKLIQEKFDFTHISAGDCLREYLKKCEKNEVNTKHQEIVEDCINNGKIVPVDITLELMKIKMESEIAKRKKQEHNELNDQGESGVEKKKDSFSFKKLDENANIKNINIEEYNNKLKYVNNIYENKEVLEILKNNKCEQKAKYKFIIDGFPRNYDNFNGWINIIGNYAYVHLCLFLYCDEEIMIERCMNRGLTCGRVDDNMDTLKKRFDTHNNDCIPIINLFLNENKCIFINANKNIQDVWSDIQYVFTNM
Procedure: as §3, §4

[8] = substrate: O=c1ccn([C@@H]2O[C@H](COP(=O)(O)O)[C@@H](O)[C@H]2O)c(=O)[nH]1; assay: purified protein, by the assay type; conditions: other: phosphate acceptor, ATP as phosphate donor, 25°C, pH 7.6
[9] = substrate: Nc1ccn([C@H]2C[C@H](O)[C@@H](COP(=O)(O)O)O2)c(=O)n1; assay: UCK characterization: Km for nucleoside monophosphate substrates, PfUCK; assay type: biochemical, Plasmodium falciparum; conditions: other: phosphate acceptor, ATP as phosphate donor, 25°C, pH 7.6
Procedure: as §3, §4

[10] = substrate: O=c1ccn([C@@H]2O[C@H](COP(=O)(O)O)[C@@H](O)[C@H]2O)c(=O)[nH]1; assay: as above; assay type: biochemical, Plasmodium falciparum; conditions: other: phosphate acceptor, ATP as phosphate donor, 25°C, pH 7.6
Procedure: as §3, §4

[11] = Table 4, benzoylacetonitrile derivatives
[12] = Plasmodium falciparum, 3D7, 48 h, Supplementary Table 7, benzoylacetonitrile derivatives
[13] = Supplementary Table 7, benzoylacetonitrile derivatives
[14] = Table 3, acrylamide and chloroacetamide compounds
[15] = Plasmodium falciparum, 3D7, 48 h, Table 5

In the case of N#CCC(=O)c1cccc(Cl)c1 [Compound C7], the “Ki—hUCK” value [1, 11] is reported as “little or no inhibition of hUCK; also recorded: No inhibition at 1 mM”, the IC50 [2, 12] is reported as > 310 µM and the IC50 [2, 13] is reported as 380 ± 50.1 µM. The Selectivity index ([3]; Table 4) was >235 and the Ki [4] was 4.26 ± 0.55 µM.

For N#CCC(=O)c1ccc(Cl)c(Cl)c1 [Compound C12], the “Ki—hUCK” value [1, 11] was “No inhibition at 1 mM”, the “IC50 - P. falciparum (3D7), µM” value [2, 13] was “no inhibition at 0.5 mM” and the Selectivity index ([3]; Table 4) was >89. The Ki [4] was 11.3 ± 2.22 µM.

In the case of O=C(CCl)NCc1cc(=O)n2ccccc2n1 [Compound C21], the Ki [1] is reported as 2.98 ± 0.5 µM, the “Ki—hUCK” value [1, 14] is reported as “inhibited hUCK activity” and the IC50 [2, 15] is reported as 15.6 ± 1.13 µM. For the same molecule, the Selectivity index ([3]; Table 3) was 0.22 and the Ki [4] was 13.7 ± 3.18 µM.

With N#CCC(=O)c1cccc(F)c1 [Compound C38] the “Ki—hUCK” value [1, 11] was “little or no inhibition of hUCK; also recorded: No inhibition at 0.5 mM”, the IC50 [2, 12] was > 310 µM and the IC50 [2, 13] was 339 ± 26.4 µM. For the same molecule, the Ki [4] was 1.66 ± 0.27 µM.

In the case of N#CCC(=O)c1ccccc1Cl [Compound C39], the “Ki—hUCK” value [1, 11] is reported as “little or no inhibition of hUCK; also recorded: No inhibition at 1 mM”, the “IC50 - P. falciparum (3D7), µM” value [2, 13] is reported as “no inhibition at 1 mM” and the Selectivity index ([3]; Table 4) is reported as >275. For the same molecule, the Ki [4] was 3.64 ± 0.59 µM.

In the case of C=CC(=O)NCc1cc(=O)n2ccccc2n1 [Compound C43], the Ki [1] is reported as 4.55 ± 0.52 µM, the “Ki—hUCK” value [1, 14] is reported as “inhibited hUCK activity” and the IC50 [2, 15] is reported as > 1000 µM. For the same molecule, the Selectivity index ([3]; Table 3) was 1.09 and the Ki [4] was 4.15 ± 0.26 µM.

In the case of O=c1ccn([C@@H]2O[C@H](COP(=O)(O)O)[C@@H](O)[C@H]2O)c(=O)[nH]1 [UMP], the Km [5] is listed as 45 ± 10 µM, the “hUCK Km fold greater than PfUCK” value [6] is listed as 2.3 fold and the “fold higher Km than CMP, PfUCK” value [7] is listed as 3.9 fold.

In the case of Nc1ccn([C@H]2C[C@H](O)[C@@H](COP(=O)(O)O)O2)c(=O)n1 [dCMP], the Km [5] is given as 900 ± 100 µM.

In the case of CMP, the Km [5] is listed as 20 ± 5 µM.

B1: hUCK (Homo sapiens) (protein)
chain: T1 sequence (P30085 1-228 isoform P30085-3)
In the case of B1, the Km [8] is reported as 47.7 ± 3.2 µM.

B2: PfUCK (Plasmodium falciparum 3D7) (protein)
chain: T3 sequence (Q8I231 24-371)
Work on B2 yielded a Km [9] of 428 ± 11 µM and a Km [10] of 110 ± 14 µM.
